Experiments:
[1] = test system: HCT116-MTAP-KO; assay: Compounds cell killing in HCT116 isogenic pair (CellTiter-Glo, 6 days), MTAP-KO cells; format: cell-based; details: Homo sapiens, HCT-116, 144 h, Cell Titer-Glo, 0-10 μM
Source text: (§1) HCT116 cell line (ATCC, CCL-247) was isolated from the colon of an adult with colon cancer. It has a mutation in codon 13 of the ras proto-oncogene and can be used as a positive control for PCR assays of mutation in this codon. HCT116-MTAP-KO was knocked-out-MTAP-gene based HCT116, and a single clone was passed for this assay. HCT116-mock-RNA-KO was knocked-out-mock-gene based HCT116 with MTAP wildtype genotype. The base medium for HCT116 isogenic pair is RPMI 1640, HEPES (Gibco, 22400105). To make the complete growth medium, add the following components to the base medium: fetal bovine serum to a final concentration of 10% (Gibco, 10099-141C). The cell line was grown in a humidified 5% CO2 atmosphere at 37° C. and regularly tested for the presence of mycoplasma with MycoAlert™ PLUS Mycoplasma Detection Kit (Lonza, LT07-710).
(§2) • Seed HCT116-mock-RNA-KO (4E2/well) or HCT116-MTAP-KO (4E2/well) cells into a 96-well plate (Greiner: 655090), 100 µL/well. • Incubate at 37° C., 5% CO2, overnight. • Add 50 μL fresh growth-medium containing serial dilution of compounds for a final compound concentration of 0-10 μM to each well. • Incubate at 37° C., 5% CO2, 6 days. • The cell viability detected by Cell Titer-Glo (Promega, G7573). Add 70 μL of CellTiter-Glo® reagent in each well. • Incubate at room temperature for 10 minutes to stabilize luminescent signal. • Analyze with Microplate Reader (TECAN, SPARK) and fit IC50 using Prism® 9.

[2] = test system: HCT116-mock-RNA-KO; assay: Compounds cell killing in HCT116 isogenic pair (CellTiter-Glo, 6 days), mock-KO (MTAP wildtype) cells; format: cell-based; details: Homo sapiens, HCT-116, 144 h, Cell Titer-Glo, 0-10 μM
Source text: as §1, §2

`NCc1n[nH]c(=O)c2ccc(C3(C(=O)N(Cc4ccc(-c5c(F)cccc5F)cn4)C4CCCc5cccnc54)CC3)cc12` (stereo not drawn) [Example 18, 1-(4-(aminomethyl)-1-oxo-1,2-dihydrophthalazin-6-yl)-N-((5-(2,6-difluorophenyl)pyridin-2-yl)methyl)-N-(5,6,7,8-tetrahydroquinolin-8-yl)cyclopropane-1-carboxamide] was tested, and the IC50 [1] was 35 nM and the IC50 [2] was 2220 nM.
`NCc1n[nH]c(=O)c2ccc(C3(C(=O)N(Cc4ccc(-c5c(F)cccc5F)cn4)[C@@H]4CCCc5cccnc54)CC3)cc12` [Example 19A, (R)-1-(4-(aminomethyl)-1-oxo-1,2-dihydrophthalazin-6-yl)-N-((5-(2,6-difluorophenyl)pyridin-2-yl)methyl)-N-(5,6,7,8-tetrahydroquinolin-8-yl)cyclopropane-1-carboxamide] gave an IC50 [1] of 17 nM and an IC50 [2] of 2230 nM.
Work on `NCc1n[nH]c(=O)c2ccc(C3(C(=O)N(Cc4ccc(-c5c(F)cccc5F)cn4)[C@H]4CCCc5cccnc54)CC3)cc12` [Example 19B, (S)-1-(4-(aminomethyl)-1-oxo-1,2-dihydrophthalazin-6-yl)-N-((5-(2,6-difluorophenyl)pyridin-2-yl)methyl)-N-(5,6,7,8-tetrahydroquinolin-8-yl)cyclopropane-1-carboxamide] yielded an IC50 [1] of 848 nM and an IC50 [2] of over 10000 nM.
`NCc1n[nH]c(=O)c2ccc(C3(C(=O)N(Cc4ccc(Oc5ccccc5)cn4)C4CCCc5cccnc54)CC3)cc12` (stereo not drawn) [Example 20, 1-(4-(aminomethyl)-1-oxo-1,2-dihydrophthalazin-6-yl)-N-((5-phenoxypyridin-2-yl)methyl)-N-(5,6,7,8-tetrahydroquinolin-8-yl)cyclopropane-1-carboxamide] showed an IC50 [1] of 215 nM and an IC50 [2] of over 1000 nM.
`NCc1n[nH]c(=O)c2ccc(C3(C(=O)N(Cc4ccc(-c5c(F)cccc5F)cn4)C4CCCc5cccc(F)c54)CC3)cc12` (stereo not drawn) [Example 21, 1-(4-(aminomethyl)-1-oxo-1,2-dihydrophthalazin-6-yl)-N-((5-(2,6-difluorophenyl)pyridin-2-yl)methyl)-N-(8-fluoro-1,2,3,4-tetrahydronaphthalen-1-yl)cyclopropane-1-carboxamide] was tested, and the IC50 [1] was 102 nM and the IC50 [2] was 4010 nM.
`NCc1n[nH]c(=O)c2ccc(C3(C(=O)N(Cc4ccc(Br)cc4F)C4CCCc5cccnc54)CC3)cc12` (stereo not drawn) [Example 22, 1-(4-(aminomethyl)-1-oxo-1,2-dihydrophthalazin-6-yl)-N-(4-bromo-2-fluorobenzyl)-N-(5,6,7,8-tetrahydroquinolin-8-yl)cyclopropane-1-carboxamide] showed an IC50 [1] of 130 nM and an IC50 [2] of 7370 nM.
`Cc1n[nH]c(C)c1-c1ccc(CN(C(=O)C2(c3ccc4c(=O)[nH]nc(CN)c4c3)CC2)C2CCCc3cccnc32)nc1` (stereo not drawn) [Example 23, 1-(4-(aminomethyl)-1-oxo-1,2-dihydrophthalazin-6-yl)-N-((5-(3,5-dimethyl-1H-pyrazol-4-yl)pyridin-2-yl)methyl)-N-(5,6,7,8-tetrahydroquinolin-8-yl)cyclopropane-1-carboxamide] showed an IC50 [1] of 3990 nM and an IC50 [2] of over 10000 nM.
With `NCc1n[nH]c(=O)c2ccc(C3(C(=O)N(Cc4ccc(-c5c(F)cccc5F)cn4)C4CCC4)CC3)cc12` [Example 25, 1-(4-(aminomethyl)-1-oxo-1,2-dihydrophthalazin-6-yl)-N-cyclobutyl-N-((5-(2,6-difluorophenyl)pyridin-2-yl)methyl)cyclopropane-1-carboxamide] the IC50 [1] was 3690 nM and the IC50 [2] was over 10000 nM.
Compound `NCc1n[nH]c(=O)c2ccc(C3(C(=O)N(Cc4ccc(-c5c(F)cccc5Cl)cn4)C4CCCc5cccnc54)CC3)cc12` (stereo not drawn) [Example 26, 1-(4-(aminomethyl)-1-oxo-1,2-dihydrophthalazin-6-yl)-N-((5-(2-chloro-6-fluorophenyl)pyridin-2-yl)methyl)-N-(5,6,7,8-tetrahydroquinolin-8-yl)cyclopropane-1-carboxamide] has an IC50 [1] of 77 nM and an IC50 [2] of 2780 nM.
With `NCc1n[nH]c(=O)c2ccc(C3(C(=O)N(Cc4ccc5c(Br)cccc5n4)C4CCCc5cccnc54)CC3)cc12` (stereo not drawn) [Example 27, 1-(4-(aminomethyl)-1-oxo-1,2-dihydrophthalazin-6-yl)-N-((5-bromoquinolin-2-yl)methyl)-N-(5,6,7,8-tetrahydroquinolin-8-yl)cyclopropane-1-carboxamide] the IC50 [1] was 415 nM and the IC50 [2] was 7290 nM.
With `N#Cc1cccc(F)c1-c1ccc(CN(C(=O)C2(c3ccc4c(=O)[nH]nc(CN)c4c3)CC2)C2CCCc3cccnc32)nc1` (stereo not drawn) [Example 28, 1-(4-(aminomethyl)-1-oxo-1,2-dihydrophthalazin-6-yl)-N-((5-(2-cyano-6-fluorophenyl)pyridin-2-yl)methyl)-N-(5,6,7,8-tetrahydroquinolin-8-yl)cyclopropane-1-carboxamide] the IC50 [1] was 102 nM and the IC50 [2] was 3210 nM.
With `CC(c1ncccn1)N(Cc1ccc(C(F)(F)F)cn1)C(=O)C1(c2ccc3c(=O)[nH]nc(CN)c3c2)CC1` (stereo not drawn) [Example 29, 1-(4-(aminomethyl)-1-oxo-1,2-dihydrophthalazin-6-yl)-N-(1-(pyrimidin-2-yl)ethyl)-N-((5-(trifluoromethyl)pyridin-2-yl)methyl)cyclopropane-1-carboxamide] the IC50 [1] was 1440 nM and the IC50 [2] was over 10000 nM.
`COCC(COC)N(Cc1ccc(-c2c(F)cccc2F)cn1)C(=O)C1(c2ccc3c(=O)[nH]nc(CN)c3c2)CC1` [Example 30, 1-(4-(aminomethyl)-1-oxo-1,2-dihydrophthalazin-6-yl)-N-((5-(2,6-difluorophenyl)pyridin-2-yl)methyl)-N-(1,3-dimethoxypropan-2-yl)cyclopropane-1-carboxamide] showed an IC50 [1] of 254 nM and an IC50 [2] of over 10000 nM.
For `NCc1n[nH]c(=O)c2ccc(C3(C(=O)N(Cc4ccc(S(F)(F)(F)(F)F)cc4)[C@@H]4CCCc5cccnc54)CC3)cc12` [Example 31, (R)-1-(4-(aminomethyl)-1-oxo-1,2-dihydrophthalazin-6-yl)-N-(4-(pentafluoro-λ^6-sulfanyl)benzyl)-N-(5,6,7,8-tetrahydroquinolin-8-yl)cyclopropane-1-carboxamide], the IC50 [1] was 18 nM and the IC50 [2] was 3150 nM.
`NCc1n[nH]c(=O)c2ccc(C3(C(=O)N(Cc4ccc(C(F)(F)F)cn4)C4CCCc5c(C6CC6)ccnc54)CC3)cc12` (stereo not drawn) [Example 32, 1-(4-(aminomethyl)-1-oxo-1,2-dihydrophthalazin-6-yl)-N-(4-cyclopropyl-5,6,7,8-tetrahydroquinolin-8-yl)-N-((5-(trifluoromethyl)pyridin-2-yl)methyl)cyclopropane-1-carboxamide] showed an IC50 [1] of 140 nM and an IC50 [2] of 7330 nM.
Compound `NCc1n[nH]c(=O)c2ccc(C3(C(=O)N(Cc4ccc(-c5c(F)cccc5F)cn4)C4CCc5cccnc54)CC3)cc12` (stereo not drawn) [Example 33, 1-(4-(aminomethyl)-1-oxo-1,2-dihydrophthalazin-6-yl)-N-((5-(2,6-difluorophenyl)pyridin-2-yl)methyl)-N-(6,7-dihydro-5H-cyclopenta[b]pyridin-7-yl)cyclopropane-1-carboxamide] has an IC50 [1] of 150 nM and an IC50 [2] of 9800 nM.
`NCc1n[nH]c(=O)c2ccc(C3(C(=O)N(Cc4ccc(Oc5c(F)cccc5F)cn4)[C@@H]4CCCc5cccnc54)CC3)cc12` [Example 34, (R)-1-(4-(aminomethyl)-1-oxo-1,2-dihydrophthalazin-6-yl)-N-((5-(2,6-difluorophenoxy)pyridin-2-yl)methyl)-N-(5,6,7,8-tetrahydroquinolin-8-yl)cyclopropane-1-carboxamide] showed an IC50 [1] of 66 nM and an IC50 [2] of 3650 nM.
Compound `NCc1n[nH]c(=O)c2ccc(C3(C(=O)N(Cc4ccc(C(F)(F)F)cn4)C4CCCc5cccnc54)CCC3)cc12` (stereo not drawn) [Example 35, 1-(4-(aminomethyl)-1-oxo-1,2-dihydrophthalazin-6-yl)-N-(5,6,7,8-tetrahydroquinolin-8-yl)-N-((5-(trifluoromethyl)pyridin-2-yl)methyl)cyclobutane-1-carboxamide] has an IC50 [1] of 924 nM and an IC50 [2] of over 10000 nM.
